# “Also recorded” adds a separate entry of the source. Where no end group is shown, it is not given here.
# Key:
# [1] = test system: EDA-containing fibronectin; assay: Endogenous (cellular) fibronectin assembly assay, human fibroblasts (AH1F); assay type: cell-based; conditions: doses up to 500 nM; for IC50: endogenous EDA+-fibronectin, human fibroblasts, read-out: IC50 of fibronectin assembly inhibition
# Text: Endogenous (cellular) fibronectin assembly assay: This immunochemical assay measures the ECM incorporation of EDA-containing fibronectin synthesized by human fibroblasts and human proximal tubular epithelial cells. Human proximal epithelial cells, HK-2 cells, were obtained from ATCC (CRL-2190). The EDA+ fibronectin is a splice variant synthesized and secreted by a variety of cells mostly during embryonic development and during wound healing, ECM remodeling, or fibrotic conditions in the adult. Fibroblasts (AH1F) were cultured in DMEM (Gibco) containing 10% fetal calf serum, and human proximal tubular epithelial cells (HK-2) were cultured in keratinocyte serum free medium (KSFM, containing pituitary extract and rEGF, Invitrogen/Thermo Fisher). Both media also contained 2.5 mM glutamine, 100 IU/ml penicillin, and 100 μg/ml streptomycin. Confluent cells were trypsinized and resuspended in DMEM containing 2% FCS in DMEM for AH1F cells or KSFM for HK-2 cells, at densities that allow delivery of 60,000 AH1F or 20,000 HK-2 cells in 90 μl per well in black-walled, flat transparent bottom 96-well plates. Cells were incubated for 2 h at 37° C. with 5% CO2 and checked microscopically for spreading and confluence. Peptides were then added in 10 μl volumes at 10-fold the desired final concentration. Cell monolayers in microplates were incubated overnight in a humidified 37° C., 5% CO2 chamber. After approximately 22 h, 10 μl of AlamarBlue® was added to the cell monolayers and incubated at 37° C. for 2 h to assess cell viability. Fluorescence of AlamarBlue® was read at 555 nm excitation and 585 nm emission. Microplates were washed twice with HBSS containing Ca^2+, Mg^2+ and 50 μl/well of 4% paraformaldehyde (PFA) in PBS was then added for 10 min at room temperature. […] Similar to the measurement of exogenous A488-FN fluorescence, A488-EDA fluorescence was read using microplate reader equipped with bottom-readout capabilities at 485 nm excitation and 525 nm emission. Fluorescence of wells to which A488-IgG was added, i.e., background green fluorescence from non-specific IgG binding and from the cell monolayer was subtracted from fluorescence values of wells incubated with A488-EDA. Data is presented for fibronectin fibrillogenesis or cell viability as percent of fluorescence values (AlexaFluor® 488 fluorescence or AlamarBlue®, respectively) for wells with no peptides.
# To determine whether PEG-FUD retained its ability to inhibit fibronectin fibrillogenesis, PEG-FUD and FUD were compared in cell-based fibronectin matrix assembly assays. The ability of PEG-FUD to inhibit the incorporation of exogenous fibronectin derived from plasma and also of fibronectin endogenously produced by the cultured cells was measured, since fibrosis is likely to contain fibronectin from both sources. […]
# [2] = test system: UUO kidneys; assay: Unilateral Ureteral Obstruction (UUO) model of kidney fibrosis; assay type: in vivo, mouse; conditions: for decrease in CD45 staining (leukocyte infiltration) / decrease in collagens (picrosirius red birefringence): UUO kidney sections; for decrease of fibronectin deposition (immunohistochemistry): UUO kidneys, s.c. 0.3 mg per day, day 3 to day 9, vs saline; for qualitative H&E histology of UUO kidneys: compared to saline
# Text: Unilateral Ureteral Obstruction model. […] All efforts were made to minimize suffering. […] PEGylated peptide equivalent amounts were based on peptide concentration.
# Thus, the right, contralateral, kidney of each mouse was utilized as a control to the left UUO-treated kidney. The data from two cohorts of UUO-treated mice were combined for this study composed of the following groups (n): saline (n=5), PEG (n=4), FUD (n=5), PEG-FUD (n=8) and PEG-mFUD (n=3).
# Histology and immunostaining: Paraffin-embedded tissues were sectioned at 4 μm and stained with H&E and Picrosirius Red, and IHC for fibronectin and CD45 for leukocytes. […] Staining for fibronectin was carried out using a rabbit polyclonal antibody to mouse fibronectin (RamFN) which was described in the art. RamFN diluted at 1:5000 required prior proteinase K antigen retrieval and was developed with ImmPRESS Rabbit Ig HRP. Staining for leukocytes was carried out using the pan leukocyte antibody rat anti-mouse CD45 (Leukocyte Common antigen, Ly-5, BD Pharmingen, clone 30-F11) at 1:100 after citrate pH 6.0 antigen retrieval and developed with ImmPRESS rat Ig HRP. RamFN and CD45 staining was counter stained with hematoxylin to demarcate nuclei.
# Stained tissue sections were imaged using the 20× objective on an upright brightfield Nikon Eclipse 600 microscope. This microscope was also equipped with polarizer capabilities utilized to assess the birefringence of the picrosirius red-stained collagen fibers. Quantitation of birefringence or DAB product following development of HRP stains was carried out using Image J (Sun Microsystems.Ink) from 6 images from each mouse section obtained at random within the central cortical area and excluding large blood vessels and the kidney capsule.
# [3] = test system: bleomycin-induced pulmonary fibrosis; assay: Bleomycin-induced pulmonary fibrosis model: hydroxyproline and survival; assay type: in vivo, mouse
# Description: All efforts were made to minimize suffering. The Bleomycin model is a rodent model representing a human equivalent of pulmonary fibrosis with the fibrotic response peaking between 14 and 21 days post-bleomycin installation. To initiate bleomycin injury, mice were anesthetized with ketamine (100 mg/kg) and xylazine (15 mg/kg) prior to delivering a single intratracheal dose of bleomycin (1 U/kg, Teva Pharmaceutical Industries, Ltd) reconstituted in 0.9% Normal Saline (NS) or NS alone as control.
# End-points for analysis: On day 14, mice were euthanized and lungs homogenized for hydroxyproline and western blot. Additionally, mouse survival by day 14 was compared between bleomycin PEG-FUD- and bleomycin PEG-mFUD-treated groups using Log-Rank test.
# Hydroxyproline assay: Hydroxyproline assay was performed by Dounce homogenizing right lungs in deionized water, hydrolyzing in 6 N HCl for three hours at 120° C., drying for 45 min at 65° C., incubating in citrate-acetate buffer and chloramine-T for 20 min at room temperature, followed by Ehrlich's reagent for 15 min at 65° C. Subsequently, the samples were cooled to room temperature and the absorbance measured at 550 nm. […] Hydroxyproline results were analyzed using Students t-test with Bonferroni post-hoc test, comparing bleomycin- and PEG-FUD-treated mice to those treated with bleomycin and PEG-mFUD.
# Chain of EDA-containing fibronectin (P02751 32-608 limits assumed): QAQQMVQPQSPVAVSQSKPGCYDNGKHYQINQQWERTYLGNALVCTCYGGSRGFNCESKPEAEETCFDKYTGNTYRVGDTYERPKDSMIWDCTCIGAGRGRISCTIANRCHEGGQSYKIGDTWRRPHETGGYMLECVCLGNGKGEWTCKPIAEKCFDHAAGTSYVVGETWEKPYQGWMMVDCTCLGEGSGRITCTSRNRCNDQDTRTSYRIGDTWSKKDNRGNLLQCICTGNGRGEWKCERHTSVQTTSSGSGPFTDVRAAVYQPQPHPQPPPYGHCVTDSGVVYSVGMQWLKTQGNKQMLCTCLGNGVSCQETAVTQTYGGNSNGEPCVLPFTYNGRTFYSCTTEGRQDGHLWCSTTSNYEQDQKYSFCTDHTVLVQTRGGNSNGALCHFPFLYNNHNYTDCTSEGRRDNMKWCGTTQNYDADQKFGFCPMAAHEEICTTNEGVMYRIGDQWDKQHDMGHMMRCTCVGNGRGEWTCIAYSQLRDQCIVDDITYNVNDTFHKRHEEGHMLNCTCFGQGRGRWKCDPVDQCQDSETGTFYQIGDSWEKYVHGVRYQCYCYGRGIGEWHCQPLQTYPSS
Substance,inhibition of assembly of cellular fibronectin by fibroblasts [1] [%],IC50 [1] [nM],decrease in CD45 staining (leukocyte infiltration) [2],decrease in collagens (picrosirius red birefringence) [2],decrease of fibronectin deposition (immunohistochemistry) [2] [%],qualitative H&E histology of UUO kidneys [2],"survival to the end of the 14-day trial ([3]; bleomycin-treated mice, s.c. 12.5 mg/kg/day day 3-13) [%]","collagen accumulation (hydroxyproline assay, right lung) ([3]; day 14 post-bleomycin, s.c. 12.5 mg/kg/day day 3-13, vs PEG-mFUD)"
"FUD: 49 amino acid FUD peptide, SEQ ID NO: 1, recombinantly expressed, His-tag removed; inhibitor of fibronectin fibrillogenesis (KDQSPLAGESGETEYITEVYGNQQNPVDIDKKLPNETGFSGNMVETEDT; human) [reference compound]",70,~30,approximately 50%,about 50%,40,greater eosinophilic staining,–,–
"PEG-FUD: PEGylated FUD prepared as in Example 1, PEG size not stated; approximately 27 kDa by mass spectrometry, likely the 20 kDa conjugate (KDQSPLAGESGETEYITEVYGNQQNPVDIDKKLPNETGFSGNMVETEDT; not fully specified (N-terminus); also: PEG size not given here)",70,~30,approximately 50%,about 50%,70,greater eosinophilic staining; also recorded: clearer tubular preservation and vascularized glomeruli,100,significant reduction of collagen accumulation

# Source: patent publication US10828372B2, “Compositions and methods for the inhibition of fibrosis” (WISCONSIN ALUMNI RESEARCH FOUNDATION, priority 2017, dated 2020)
